Tests used:
[1] = tested on: callus tissue generated from the variety 'Seaspray'; assay: Callus growth dose response to sethoxydim; assay type: cell-based, seashore paspalum (Paspalum vaginatum); details: growth averaged over three consecutive 3-week subcultures
Description: The dose response of paspalum tissue in culture to sethoxydim rate was determined using callus tissue generated from the variety ‘Seaspray’ as a model cultivar. Effect of sethoxydim concentration on callus growth was determined by placing callus tissue from ‘Seaspray’ on MS/B5 medium (Murashige and Skoog. 1962. supra; Gamborg et al. 1968. supra) containing 2 mg/L 2-4,D and one of eight concentrations of sethoxydim. Herbicide rates were replicated 6 times and included concentrations of 0, 2.5, 5, 7.5, 10, 25, 50, and 100 μM sethoxydim. Sethoxydim was diluted in methanol and added after the autoclaved medium was cooled to approximately 55° C. (in order to prevent loss of activity from heat degradation). The medium was protected from photo-degradation by wrapping containers in aluminum foil prior to storage.
To measure callus growth, 0.5 gram of callus tissue was weighed, separated into nine equal pieces and placed in a 3×3 pattern on the solid medium of each plate. Six replicate plates for each of the eight sethoxydim concentrations was distributed on a rack in a growth room in a completely randomized design. At 21 days after plating, the tissue from each plate was weighed and recorded. For subculture, 0.5 gram from each plate was obtained for the next growth period. This process was continued for nine weeks, providing three growth measurements for each plate. […]

[2] = tested on: Mauna Kea line regenerated from tissue culture (TCC); assay: Whole plant greenhouse dose-response, Poast herbicide (Example 9); assay type: in vivo, seashore paspalum (Paspalum vaginatum); details: for injury score: TCC
Text: (§1) A second greenhouse experiment was initiated to evaluate SR plants regenerated from a second sethoxydim-resistant cell line, Line B, for sethoxidim resistance at the whole plant level. In the previous experiment (Example 8), minor injury occurred on Line A at higher concentrations of Segment™ sethoxydim herbicide. These injury symptoms were more indicative of surfactant injury rather than sethoxydim injury. […] Plants were transplanted to Cone-tainers™ measuring 4×14 cm and tapering to 1 cm (Stuewe and Sons Inc., Corvallis, Oreg.) containing a 1:1 mix of Fafard® 3B mix and sand and placed on benches under sodium lights in a greenhouse with a 16-h photoperiod maintained at 27/32° C. day/night for approximately two weeks prior to application of herbicide treatments.
(§2) Each of the four genotypes (Line A, Line B, PT and TCC) were treated with 0, 50, 100, 200, 400, 800, 1600, 3200 and 6400 g ai ha^−1 rates of sethoxydim using Poast™ herbicide (BASF Corp., Florham Park, N.J.). All herbicide rates were applied at a spray volume of 1871 ha^−1 in an experimental spray chamber, and after drying, the plants were returned to the greenhouse bench and maintained under the conditions described above. Visual estimates of crop injury were recorded at 16, 21, and 28 d after treatment (DAT) using a scale of 0 to 100, where 0 equals no injury and 100 equals complete death. The experiment was a four by nine factorial with four genotypes and nine herbicide rates. Treatments were arranged in a randomized complete block design. Four replications were used for all four genotypes. Data were first analyzed using a two-way analysis of variance (SAS, 2008) and subsequently analyzed within herbicide rate. Differences among genotype means at each herbicide rate were determined using Fisher's Least Significant Difference (LSD).

[3] = tested on: original parental line, Mauna Kea (PT); assay: as above; assay type: in vivo, seashore paspalum (Paspalum vaginatum)
Text: as §1, §2

[4] = tested on: sethoxydim-resistant Line A; assay: as above; assay type: in vivo, seashore paspalum (Paspalum vaginatum)
Text: as §1, §2

[5] = tested on: sethoxydim-resistant Line B; assay: as above; assay type: in vivo, seashore paspalum (Paspalum vaginatum)
Text: as §1, §2

[6] = tested on: Large crabgrass (Digitaria sanguinalis); assay: Large crabgrass dose response study, plants from sod farm seed; assay type: in vivo
Description: (§3) Plants were grown from seed collected from a turfgrass sod farm near where sethoxydim had been continuously used for twelve years. Seeds were planted in 250 mL styrofoam cups with a potting mixture of pure sand in a glasshouse with supplemental lighting (300 uE/m2/s) and 30/25 temperature. Plants were watered once daily and fertilized once a week. Large crabgrass plants were treated with herbicides when 3-5 cm tall in a dose response study. Four herbicides (sethoxydim, fluazifop, clethodim, and pinoxaden) were applied at […]. Plant injury was observed 7 and 14 DAT. The experimental design consisted of a randomized complete block design with three replications. The experiment was replicated in time.

[7] = tested on: Large crabgrass (Digitaria sanguinalis) F2; assay: Large crabgrass dose response study, F2 from self-pollinated surviving plants; assay type: in vivo
Description: as §3
In response to all four herbicides, the plants initially illutrated typical ACCase symptomology, but recovered in 7-14 days after treatment (DAT). […] Seeds from self-pollinated surviving large crabgrass plants were collected and analyzed using the same dose response design as state before. […] The ED50 was approximately 10 times greater for the resistant (R) population than that for the wild type (S) population.

bermudagrass = assay: Controlling weedy species in a plot of bermudagrass and sethoxydim-resistant seashore paspalum; assay type: in vivo
Description: (§4) A plot containing both bermudagrass and sethoxydim-resistant seashore paspalum is treated with 150 g a.i. ha^−1 sethoxydim once a week over a period of three months. Over the three month treatment period, it is observed that the bermudagrass slowly dies out while the sethoxydim-resistant paspalum continues to thrive, leaving the plot populated with above 80% sethoxydim-resistant paspalum.
as §4, with “treated with both 150 g” for “treated with 150 g”, “ha^−1 sethoxydim and 150 g a.i. ha^−1 fenoxaprop once a” for “ha^−1 sethoxydim once a”

[8] = at rates of 400 g ai ha^−1, scale of 0 to 100
[9] = at rates of 1600 g ai ha^−1 or more
[10] = all rates up to 6400 g ai ha^−1

## CCC/C(=N\OCC)C1=C(O)CC(CC(C)SCC)CC1=O (centres unmarked) [sethoxydim, 2-[1-(ethoxyimino)-butyl]-5-[2-(ethylthio)propyl]-3-hydroxy-2-cylohexen-1-one]
[1]
  lowest herbicide rate to totally inhibit callus growth: 7.5 µM
[2]; TC
  LD50: 782 g ai ha^−1
[2]; [8]
  injury score: ≥ 27
[2]; [9]
  injury score: ≥ 80%
[3]
  LD50: 720 g ai ha^−1
[3]; [8]
  injury score: ≥ 27
[3]; [9]
  injury score: ≥ 80%
[4]
  LD50: > 6400 g ai ha^−1
[4]; [10]
  maximum injury score observed: less than 20%
[5]
  LD50: > 6400 g ai ha^−1
[5]; [10]
  maximum injury score observed: less than 20%
[6]; conclusion from ED50 values
  resistance or susceptibility of this population of large crabgrass: resistant
[6]; crabgrass, FIG. 17
  ED50 of resistant (R) population relative to wild type (S) population: approximately 10 times
[6]; large crabgrass grown from sod farm seed, treated when 3-5 cm tall
  effective dose required to cause 50% injury (ED50): 245±37 g ai/ha
[7]
  effective dose required to cause 50% injury (ED50): 179±4 g ai/ha
bermudagrass; 150 g a.i. ha^−1 sethoxydim and 150 g a.i. ha^−1 fenoxaprop once a week over three months
  plot populated with sethoxydim-resistant paspalum; bermudagrass slowly dies out: above 80%
bermudagrass; 150 g a.i. ha^−1 sethoxydim once a week over three months
  plot populated with sethoxydim-resistant paspalum; bermudagrass slowly dies out: above 80%
